Literature values, collected in publication PMC6906431, “Selective small molecule PARG inhibitor causes replication fork stalling and cancer cell death” (Nature Communications, 2019).
Like-named read-outs stand apart in the source and are kept apart here.

System: PARG
Conditions: cited from earlier work

| Compound | IC50 (read-out: IC50) | IC50 (read-out: IC50, published values) |
| --- | --- | --- |
| O=C(OC[C@H]1O[C@@H](OC(=O)c2cc(O)c(O)c(OC(=O)c3cc(O)c(O)c(O)c3)c2)[C@H](OC(=O)c2cc(O)c(O)c(OC(=O)c3cc(O)c(O)c(O)c3)c2)[C@@H](OC(=O)c2cc(O)c(O)c(OC(=O)c3cc(O)c(O)c(O)c3)c2)[C@@H]1OC(=O)c1cc(O)c(O)c(OC(=O)c2cc(O)c(O)c(O)c2)c1)c1cc(O)c(O)c(OC(=O)c2cc(O)c(O)c(O)c2)c1 [Gallotannin] | < 5 µM |  |
| Nc1ncnc2c1ncn2[C@@H]1O[C@H](CO[P@](=O)(O)O[P@@](=O)(O)OC[C@H]2NC[C@H](O)[C@@H]2O)[C@@H](O)[C@H]1O [ADP-HPD, adenosine diphosphate (hydroxymethyl)pyrrolidinediol, reference compound] |  | 0.1 to 1.4 µM |
